According to patent US20190262371A1, “METHODS AND COMPOSITION FOR THE TREATMENT OF RNA VIRAL INFECTIONS” (The Regents of the University of California, priority 2016, published 2019):

Tested on: ZIKV (MR766)
Experiment: Inhibitor activity analysis: effect of methyltransferase inhibitors on ZIKV replication in a microglial cell line (supernatant one-step qRT-PCR)
Type: cell-based, ZIKA virus
Conditions: assay not given, presumably ZIKV inhibition, 10 μM, MOI 1, 24 h / 48 h, normalized to DMSO
Protocol: FIG. 7. Microglial cell-line was plated 1×10^6 cells per well in 24 well plate and cultured for 24 h. Cell were then treated in triplicate with series of methyltransferase inhibitors ([…]) for one hour followed by infection with ZIKV (MR766, MOI: 1) and changed the fresh medium after 2 hrs of ZIKV infection and re-added the drugs. After 24 h of the infection, we collected the supernatant and did one-step qRT-PCR. Fold inhibition of ZIKV infection was normalized from DMSO control.
FIG. 8. Microglial cell-line was plated 1×10^6 cells per well in 24 well plate and cultured for 24 h. […]
Effects of methyltransferase inhibitors on ZIKV replication was monitored using previously published methods (Dang, J., Tiwari, S. K., Lichinchi, G., Qin, Y., Patil, V. S., Eroshkin, A. M., and Rana, T. M. (2016); Zika Virus Depletes Neural Progenitors in Human Cerebral Organoids through Activation of the Innate Immune Receptor TLR3. Cell Stem Cell 19, 258-265; Lichinchi, G., Zhao, B. S., Wu, Y., Lu, Z., Qin, Y., He, C., and Rana, T. M. (2016). Dynamics of Human and Viral RNA Methylation during Zika Virus Infection. Cell Host Microbe 20, 666-673; Tiwari, S. K., Dang, J., Qin, Y., Lichinchi, G., Bansal, V., and Rana, T. M. (2017), which are incorporated herein in their entirety for all purposes). […]

In the case of `Nc1ncnc2c1ncn2C1OC(CNCCn2c3ccccc3c3ccccc32)C(O)C1O` (stereo not shown) [TR-H-08], the “activity (found to be an active compound)” value was “active”.
